From patent US20090054512A1, “USE OF ORGANIC COMPOUNDS” (priority 2006, published 2009)

System: patients with type 2 diabetes
Assay: Randomized, double-blind, two-period crossover clinical study of 100 mg vildagliptin once daily in the morning or the evening
Type: in vivo, human

`N#C[C@@H]1CCCN1C(=O)CNC12CC3CC(CC(O)(C3)C1)C2` [vildagliptin, (S)-1-[(3-hydroxy-1-adamantyl)amino]acetyl-2-cyano-pyrrolidine] was tested, and the “overnight HGP (hepatic glucose production) reduction” value (administered before or with the evening meal, especially patients with baseline HbA1c>8.0%) was “unexpected additional benefit on the overnight HGP reduction” and the “overnight hepatic glucose production” value (at least 100 mg before or with the morning meal, or before or with the lunch, type 2 diabetes, especially baseline HbA1c>8.0%) was “can be reduced”.
